From patent US8680094B2, “1, 4-benzoxazine compounds and derivatives thereof as therapeutic drugs for the treatment of neurodegenerative conditions” (Board of Regents, The University of Texas System, priority 2008, dated 2014)

Legend:
[1] = tested on: ATF-3; experiment: Western blot of ATF-3 expression in LK-treated cerebellar granule neurons; type: cell-based, rat; conditions: 25 μM, 3 h
Description: Cerebellar neuron cultures were treated for 3 h with HK, LK, or LK medium containing 25 μM HSB-13, 25 μM ASK-2a, or 25 μM HSB-22. Whole cell lysates were then prepared and subjected to Western blot analysis using antibodies against c-jun and ATF-3.
(§1) The culture medium was removed and the cells were washed twice with ice-cold phosphate-buffered saline (PBS) and lysed in lysis buffer [1% Triton, 20 mM Tris-HCl (pH 7.5), 150 mM NaCl, 1 mM Na2EDTA, 1 mM EGTA, 2.5 mM sodium pyrophosphate, 1 mM beta-glycerophosphate, 1 mM Na3VO4, 1 μg/mL leupeptin and 1 protease inhibitor mixture]. Protein concentrations were measured and normalized using Bradford protein assay reagent (Bio-Rad, Hercules, Calif., USA). Following normalization, 40 μg of protein was subjected to Western blotting. Immunoreactivity was examined by enhanced chemiluminescence (Amersham Bioscience, Piscataway, N.J., USA).
C-jun expression is induced in a variety of tissue culture and in vivo paradigms of neuronal apoptosis (Schenkel et al., 2004). […] Treatment with HSB-13 inhibited c-jun expression even lower that that seen in HK-treated cultures. […] The suppression of ATF-3 expression using siRNA inhibits LK-mediated death of cerebellar granule neurons has been previously been described by the present inventors (Chen et al., 2008a). […] As observed with c-jun, the suppression was most robust with HSB-13. As a result these compositions can inhibit the activity of c-jun and ATF-3, which in turn play a role in treating cancer and oncoproteins like c-jun.

[2] = tested on: HT-22 cells; experiment: HCA-induced toxicity in HT-22 neuroblastoma cells; type: cell-based, mouse
Description: FIGS. 6A and 6B show the effects of HSB-13 on HT-22 cells and the quantification of cell death. […] HT-22 cells were treated with no additives (Un), 1.5 mM HCA, or 1.5 mM HCA plus 25 μM HSB-13, 25 μM ASK-2a, and 25 μM HSB-22. In FIG. 6A, the appearance of the cultures at 24 h after treatment was visualized by phase-contrast microscopy (Phase). […] Viability was expressed as % of untreated cultures (control);
HT-22 cells were treated with no additives (Control), 2 mM HCA, or 2 mM HCA+25 μM HSB-13. The appearance of the cultures at 24 h after treatment is shown.
The mouse HT-22 neuroblastoma cell line was purchased from ATCC (Manassas, Va., USA) and cultured in Dulbecco's modified Eagle's medium (DMEM) with 4.5 g/L glucose (without sodium pyruvate) supplemented with 10% FBS, 100 units/ml penicillin and 100 μg/ml streptomycin. Cultures were plated at ˜30% confluence for HCA treatment. HCA was made as 150 mM stock solution adjusted to pH 7.5 and used at a final concentration of 1.5 mM.
Treatment of the mouse neuroblastoma HT-22 cell line with homocysteic acid (HCA) induces apoptosis through glutathione depletion and oxidative stress (Murphy et al. 1990; Ratan et al. 1994a, 1994b). The inventors studied whether HSB-13, HSB-22, and ASK-2a were protective in this paradigm of oxidative stress-induced neuronal death. HSB-13 prevents HCA-induced cell death. […] Thus, HSB-13, but not ASK-2a and HSB-22, is protective against oxidative stress-induced neuronal death.
Analysis in cultured cerebellar granule neurons identified HSB-13 as one with strong neuroprotective efficacy. We therefore selected HSB-13 to examine whether its protective effects extended to other neuronal types and apoptotic stimuli. Treatment of the hippocampally-derived neuroblastoma cell line, HT-22, with homocysteic acid (HCA) causes oxidative stress due to glutathione depletion leading to apoptosis (Murphy et al., 1990; Ratan et al., 1994a and 1994b).

[3] = tested on: phospho-Akt (Ser473); experiment: Western blot of signaling proteins in LK-treated cerebellar granule neurons: phospho-Akt (Ser473); type: cell-based, rat; conditions: LK medium with compound
Description: Cultures of cerebellar granule neurons were switched to HK medium, LK medium, or LK medium containing of HSB-13, HSB-22, or ASK-2a for 3 h. Total cell lysates were prepared and analyzed by Western blotting using antibodies against phospho-Akt (Ser473), phospho-MEK, phospho-ERK, and phospho-GSK3β.
as §1
Activation of MEK, ERK and Akt requires their phosphorylation, which can be detected using phospho-specific antibodies. As previously reported by the inventors and others (Chin et al., 2004; Johnson et al., 2005; Majdzadeh et al., 2008), MEK and ERK phosphorylation decreases following LK treatment of cerebellar granule neurons. This decrease is not prevented by HSB-13, HSB-22, or ASK-2a (FIG. 4). […] This is also not affected by treatment with ASK-2a or HSB-22 (FIG. 4).

[4] = any of the three doses examined (data not shown)

Structure (SMILES)	LK-mediated increase in ATF-3 [1]	protection against HCA-induced cell death [2, 4]	phosphorylation of Akt at Ser473 in LK [3]	protection against HCA-induced cell death ([2]; 1.5 mM HCA, 5 μM compound, 24 h)	protection against HCA-induced cell death ([2]; 1.5 mM HCA, 25 μM compound, 24 h)	protection against HCA-induced cell death ([2]; 2 mM HCA, 5 uM compound)	HCA-induced cell death ([2]; 2 mM HCA, 25 uM compound, 24 h (FIG. 9))
O=C1Nc2ccccc2OC1=Cc1cc(Br)c(O)c(Br)c1 [ASK-2a]	inhibited	failed to protect	not affected				
Nc1ccc2c(c1)NC(=O)/C(=C/c1cc(Br)c(O)c(Br)c1)O2 [HSB-13, (Z)-6-amino-2-(3,′5′-dibromo-4′-hydrozybenzylidene)-2H-benzo[b][1,4]oxazin-3(4H)-one]	inhibited		inhibits Akt (Ser473) phosphorylation even more than that seen in LK	robust protection	highest protection	not protective	prevented
O=C1Nc2cc(Cl)ccc2O/C1=C\c1cc(Br)c(O)c(Br)c1 [HSB-22]	inhibited	failed to protect	not affected				
